# According to ChEMBL document CHEMBL4706534, “1,2,3-Triazole-containing hybrids with potential antibacterial activity against methicillin-resistant Staphylococcus aureus (MRSA)” (Eur J Med Chem, 2020):
# Experiments:
# [1] = test system: Staphylococcus aureus; assay: Antibacterial activity against Methicillin-resistant Staphylococcus aureus KU60; format: functional
# [2] = test system: Staphylococcus aureus; assay: Resistance index, ratio of MIC for antibacterial activity against methicillin-resistant Staphylococcus aureus […] to MIC for antibacterial activity against methicillin-sensitive Staphylococcus aureus; format: functional
# [3] = test system: Staphylococcus aureus; assay: Antibacterial activity against Staphylococcus aureus ATCC 25923 by CLSI-based broth microdilution method; format: functional
# [4] = test system: Enterococcus; assay: Antibacterial activity against vancomycin resistant Enterococcus ATCC 51299; format: functional
# [5] = test system: Staphylococcus aureus; assay: Antibacterial activity against Methicillin-resistant Staphylococcus aureus ATCC 33591; format: functional, organism-based
# [6] = test system: Enterococcus faecalis; assay: Antibacterial activity against vancomycin susceptible Enterococcus faecalis ATCC 29212; format: functional
# [7] = test system: Staphylococcus aureus; assay: Antibacterial activity against Methicillin-resistant Staphylococcus aureus N315 incubated for 24 hrs by two fold serial dilution method; format: functional
# [8] = test system: Staphylococcus aureus; assay: Antibacterial activity against Staphylococcus aureus ATCC 25923 incubated for 24 hrs by two fold serial dilution method; format: functional
# [9] = test system: Staphylococcus aureus; assay: Antibacterial activity against methicillin-resistant Staphylococcus aureus ATCC 33591 by broth microdilution method; format: functional
# [10] = test system: Staphylococcus aureus; assay: Antibacterial activity against methicillin-sensitive Staphylococcus aureus ATCC 29213 by broth microdilution method; format: functional
# [11] = test system: Staphylococcus aureus; assay: Resistance index, ratio of MIC for antibacterial activity against Staphylococcus aureus ATCC 43300 incubated for 16 to 18 hrs by CLSI based assay to MIC for antibacterial activity against Staphylococcus aureus DSM 20231 incubated for 16 to 18 hrs by CLSI based assay; format: functional; conditions: time 16-18 hrs
# [12] = test system: Staphylococcus aureus; assay: Antibacterial activity against methicillin-resistant Staphylococcus aureus ATCC 43300 incubated for 16 to 18 hrs by CLSI based assay; format: functional; conditions: time 16-18 hrs
# [13] = test system: Staphylococcus aureus; assay: Antibacterial activity against Methicillin-resistant Staphylococcus aureus 2 incubated for 16 hrs by agar dilution method; format: functional
# [14] = test system: Staphylococcus aureus; assay: Antibacterial activity against Methicillin-resistant Staphylococcus aureus 1 incubated for 16 hrs by agar dilution method; format: functional
# [15] = test system: Enterococcus; assay: Antibacterial activity against Vancomycin-resistant enterococcus 2 incubated for 16 hrs by agar dilution method; format: functional
# [16] = test system: Staphylococcus aureus; assay: Antibacterial activity against methicillin-resistant Staphylococcus aureus; format: functional
smiles,measurement,setting,value
O=C(c1ccccc1)N1CCN(c2ccc(N3C[C@H](Cn4ccnn4)OC3=O)cc2F)CC1,MIC,[1],0.25 mg/L
CC(C)NC(=N)c1ccc2[nH]c(-c3ccc(OCc4cn(-c5ccccc5)nn4)cc3)nc2c1,Ratio,[2],0.125
same,MIC,[3],8 mg/L
CN[C@H](CC(C)C)C(=O)N[C@@H]1Cc2ccc(c(Cl)c2)Oc2cc3cc(c2O[C@@H]2O[C@H](CO)[C@@H](O)[C@H](O)[C@H]2O[C@H]2C[C@](C)(N)[C@H](O)[C@H](C)O2)Oc2ccc(cc2Cl)[C@@H](O)[C@@H]2NC(=O)[C@H](NC(=O)[C@@H]3NC(=O)[C@H](CC(=O)O)NC1=O)c1ccc(O)c(c1)-c1c(O)cc(O)cc1[C@H](C(=O)NCCCc1cn(CCOCCOCCOCCNC(=O)[C@@H]3NC(=O)[C@H]4NC(=O)[C@H](NC(=O)[C@@H]5NC(=O)[C@H](CC(=O)O)NC(=O)[C@H](NC(=O)[C@@H](CC(C)C)NC)Cc6ccc(c(Cl)c6)Oc6cc5cc(c6O[C@@H]5O[C@H](CO)[C@@H](O)[C@H](O)[C@H]5O[C@H]5C[C@](C)(N)[C@H](O)[C@H](C)O5)Oc5ccc(cc5Cl)[C@H]4O)c4ccc(O)c(c4)-c4c(O)cc(O)cc43)nn1)NC2=O,MIC,[4],0.5 mg/L
same,MIC,[5],0.5 mg/L
same,MIC,[6],0.5 mg/L
O=c1c2ccc(Cl)cc2ncn1CC(O)Cn1nnc2ccccc21 (centres undefined),MIC,[7],≥ 64 mg/L
same,MIC,[8],≥ 64 mg/L
CC(=O)N[C@H]1[C@H](O[C@@H]2c3ccc(c(Cl)c3)Oc3cc4cc(c3O)Oc3ccc(cc3Cl)C[C@H]3NC(=O)[C@H](n5cc(CO[C@H]6[C@@H](OCc7ccccc7)[C@@H](COCc7ccccc7)O[C@@H](O[C@H]7[C@H](OCc8ccccc8)[C@@H](OCc8ccccc8)[C@H](Sc8ccccc8)O[C@@H]7COCc7ccccc7)[C@@H]6OCc6ccccc6)nn5)c5ccc(O)c(c5)Oc5cc(O)cc(c5)[C@H](NC3=O)C(=O)N[C@H]4C(=O)N[C@H]3C(=O)N[C@@H]2C(=O)N[C@@H](C(=O)O)c2cc(O)cc(O)c2-c2cc3ccc2O)O[C@H](CO)[C@@H](O)[C@@H]1O,MIC,[9],32 mg/L
same,MIC,[10],32 mg/L
Cc1ccc2c(c1)nnn2CC(O)Cn1cnc2cc(Cl)ccc2c1=O (centres undefined),MIC,[7],≥ 64 mg/L
same,MIC,[8],≥ 64 mg/L
CC(C)NC(=N)c1ccc2[nH]c(-c3ccc(OCc4cn(CSc5ccccc5)nn4)cc3)nc2c1,Ratio,[2],0.125
same,MIC,[3],8 mg/L
N=C(N)NCCC[C@H](NC(=O)[C@H](Cc1c[nH]c2ccccc12)NC(=O)[C@H](CCCNC(=N)N)NC(=O)[C@H](Cc1c[nH]c2ccccc12)NC(=O)[C@@H](N)CCCNC(=N)N)C(=O)N[C@@H](Cc1c[nH]c2ccccc12)C(=O)N[C@@H](CCCCn1cc(COc2ccccc2)nn1)C(N)=O,Ratio,[11],0.5
same,MIC,[12],2.7 µM
C#CCOCCOCCOCc1cn([C@H](CC(C)C)C(=O)N[C@@H]2Cc3ccc(c(Cl)c3)Oc3cc4cc(c3O[C@@H]3O[C@H](CO)[C@@H](O)[C@H](O)[C@H]3O[C@H]3C[C@](C)(NCCCCCCCc5ccccc5)[C@H](O)[C@H](C)O3)Oc3ccc(cc3Cl)[C@@H](O)[C@@H]3NC(=O)[C@H](NC(=O)[C@@H]4NC(=O)[C@H](CC(=O)O)NC2=O)c2ccc(O)c(c2)-c2c(O)cc(O)cc2[C@H](C(=O)O)NC3=O)nn1,MIC,[13],12.5 mg/L
same,MIC,[14],25 mg/L
CN[C@H](CC(C)C)C(=O)N[C@@H]1Cc2ccc(c(Cl)c2)Oc2cc3cc(c2O[C@@H]2O[C@H](CO)[C@@H](O)[C@H](O)[C@H]2O[C@H]2C[C@](C)(N)[C@H](O)[C@H](C)O2)Oc2ccc(cc2Cl)[C@@H](O)[C@@H]2NC(=O)[C@H](NC(=O)[C@@H]3NC(=O)[C@H](CC(=O)O)NC1=O)c1ccc(O)c(c1)-c1c(O)cc(O)cc1[C@H](C(=O)NCCCCc1cn(CCOCCOCCOCCNC(=O)[C@@H]3NC(=O)[C@H]4NC(=O)[C@H](NC(=O)[C@@H]5NC(=O)[C@H](CC(=O)O)NC(=O)[C@H](NC(=O)[C@@H](CC(C)C)NC)Cc6ccc(c(Cl)c6)Oc6cc5cc(c6O[C@@H]5O[C@H](CO)[C@@H](O)[C@H](O)[C@H]5O[C@H]5C[C@](C)(N)[C@H](O)[C@H](C)O5)Oc5ccc(cc5Cl)[C@H]4O)c4ccc(O)c(c4)-c4c(O)cc(O)cc43)nn1)NC2=O,MIC,[4],0.5 mg/L
same,MIC,[5],0.5 mg/L
same,MIC,[6],0.5 mg/L
CC(C)NC(=N)c1ccc2[nH]c(-c3ccc(OCc4cn(-c5ccccc5Cl)nn4)cc3)nc2c1,Ratio,[2],0.125
same,MIC,[3],8 mg/L
CC(C)C[C@H](C(=O)N[C@@H]1Cc2ccc(c(Cl)c2)Oc2cc3cc(c2O[C@@H]2O[C@H](CO)[C@@H](O)[C@H](O)[C@H]2O[C@H]2C[C@](C)(NCCCCCCCc4ccccc4)[C@H](O)[C@H](C)O2)Oc2ccc(cc2Cl)[C@@H](O)[C@@H]2NC(=O)[C@H](NC(=O)[C@@H]3NC(=O)[C@H](CC(=O)O)NC1=O)c1ccc(O)c(c1)-c1c(O)cc(O)cc1[C@H](C(=O)O)NC2=O)n1cc(COc2ccc(-c3ccc(OCc4cn([C@H](CC(C)C)C(=O)N[C@@H]5Cc6ccc(c(Cl)c6)Oc6cc7cc(c6O[C@@H]6O[C@H](CO)[C@@H](O)[C@H](O)[C@H]6O[C@H]6C[C@](C)(NCCCCCCCc8ccccc8)[C@H](O)[C@H](C)O6)Oc6ccc(cc6Cl)[C@@H](O)[C@@H]6NC(=O)[C@H](NC(=O)[C@@H]7NC(=O)[C@H](CC(=O)O)NC5=O)c5ccc(O)c(c5)-c5c(O)cc(O)cc5[C@H](C(=O)O)NC6=O)nn4)cc3)cc2)nn1,MIC,[13],12.5 mg/L
same,MIC,[14],12.5 mg/L
same,MIC,[15],25 mg/L
N=C(N)NCCC[C@H](NC(=O)[C@H](Cc1c[nH]c2ccccc12)NC(=O)[C@H](CCCNC(=N)N)NC(=O)[C@H](Cc1c[nH]c2ccccc12)NC(=O)[C@@H](N)CCCNC(=N)N)C(=O)N[C@@H](Cc1c[nH]c2ccccc12)C(=O)N[C@@H](CCCCn1cc(COc2cc(OCc3cn(CCCC[C@H](NC(=O)[C@H](Cc4c[nH]c5ccccc45)NC(=O)[C@H](CCCNC(=N)N)NC(=O)[C@H](Cc4c[nH]c5ccccc45)NC(=O)[C@H](CCCNC(=N)N)NC(=O)[C@H](Cc4c[nH]c5ccccc45)NC(=O)[C@@H](N)CCCNC(=N)N)C(N)=O)nn3)cc(OCc3cn(CCCC[C@H](NC(=O)[C@H](Cc4c[nH]c5ccccc45)NC(=O)[C@H](CCCNC(=N)N)NC(=O)[C@H](Cc4c[nH]c5ccccc45)NC(=O)[C@H](CCCNC(=N)N)NC(=O)[C@H](Cc4c[nH]c5ccccc45)NC(=O)[C@@H](N)CCCNC(=N)N)C(N)=O)nn3)c2)nn1)C(N)=O,Ratio,[11],0.5
same,MIC,[12],2.7 µM
CN[C@H](CC(C)C)C(=O)N[C@@H]1Cc2ccc(c(Cl)c2)Oc2cc3cc(c2O[C@@H]2O[C@H](CO)[C@@H](O)[C@H](O)[C@H]2O[C@H]2C[C@](C)(N)[C@H](O)[C@H](C)O2)Oc2ccc(cc2Cl)[C@@H](O)[C@@H]2NC(=O)[C@H](NC(=O)[C@@H]3NC(=O)[C@H](CC(=O)O)NC1=O)c1ccc(O)c(c1)-c1c(O)cc(O)cc1[C@H](C(=O)NCCOCCOCCOCCn1cc(CCNC(=O)[C@@H]3NC(=O)[C@H]4NC(=O)[C@H](NC(=O)[C@@H]5NC(=O)[C@H](CC(=O)O)NC(=O)[C@H](NC(=O)[C@@H](CC(C)C)NC)Cc6ccc(c(Cl)c6)Oc6cc5cc(c6O[C@@H]5O[C@H](CO)[C@@H](O)[C@H](O)[C@H]5O[C@H]5C[C@](C)(N)[C@H](O)[C@H](C)O5)Oc5ccc(cc5Cl)[C@H]4O)c4ccc(O)c(c4)-c4c(O)cc(O)cc43)nn1)NC2=O,MIC,[4],0.5 mg/L
same,MIC,[5],0.5 mg/L
same,MIC,[6],0.5 mg/L
CN[C@H](CC(C)C)C(=O)N[C@@H]1Cc2ccc(c(Cl)c2)Oc2cc3cc(c2O[C@@H]2O[C@H](CO)[C@@H](O)[C@H](O)[C@H]2O[C@H]2C[C@](C)(N)[C@H](O)[C@H](C)O2)Oc2ccc(cc2Cl)[C@@H](O)[C@@H]2NC(=O)[C@H](NC(=O)[C@@H]3NC(=O)[C@H](CC(=O)O)NC1=O)c1ccc(O)c(c1)-c1c(O)cc(O)cc1[C@H](C(=O)NCCCCCc1cn(CCOCCOCCOCCNC(=O)[C@@H]3NC(=O)[C@H]4NC(=O)[C@H](NC(=O)[C@@H]5NC(=O)[C@H](CC(=O)O)NC(=O)[C@H](NC(=O)[C@@H](CC(C)C)NC)Cc6ccc(c(Cl)c6)Oc6cc5cc(c6O[C@@H]5O[C@H](CO)[C@@H](O)[C@H](O)[C@H]5O[C@H]5C[C@](C)(N)[C@H](O)[C@H](C)O5)Oc5ccc(cc5Cl)[C@H]4O)c4ccc(O)c(c4)-c4c(O)cc(O)cc43)nn1)NC2=O,MIC,[4],0.5 mg/L
same,MIC,[5],0.5 mg/L
same,MIC,[6],0.5 mg/L
c1ccc(SCn2cc(COc3ccc(-c4nc5cc(C6=NCCN6)ccc5[nH]4)cc3)nn2)cc1,Ratio,[2],0.125
same,MIC,[3],8 mg/L
N=C(N)NCCC[C@H](NC(=O)[C@H](Cc1c[nH]c2ccccc12)NC(=O)[C@H](CCCNC(=N)N)NC(=O)[C@H](Cc1c[nH]c2ccccc12)NC(=O)[C@@H](N)CCCNC(=N)N)C(=O)N[C@@H](Cc1c[nH]c2ccccc12)C(=O)N[C@@H](CCCCn1cc(COc2cccc(OCc3cn(CCCC[C@H](NC(=O)[C@H](Cc4c[nH]c5ccccc45)NC(=O)[C@H](CCCNC(=N)N)NC(=O)[C@H](Cc4c[nH]c5ccccc45)NC(=O)[C@H](CCCNC(=N)N)NC(=O)[C@H](Cc4c[nH]c5ccccc45)NC(=O)[C@@H](N)CCCNC(=N)N)C(N)=O)nn3)c2)nn1)C(N)=O,Ratio,[11],0.5
same,MIC,[12],2.7 µM
O=c1c2ccc(F)cc2ncn1CC(O)Cn1nnc2ccccc21 (centres undefined),MIC,[7],≥ 64 mg/L
same,MIC,[8],≥ 64 mg/L
Cc1ccc2c(c1)nnn2CC(O)Cn1cnc2cc(F)ccc2c1=O (centres undefined),MIC,[7],≥ 64 mg/L
same,MIC,[8],≥ 64 mg/L
CC1(C)S[C@@H]2[C@H](NC(=O)[C@H](N)c3ccccc3)C(=O)N2[C@H]1C(=O)O [AMPICILLIN],MIC,[3],4 mg/L
COc1c(N2C[C@@H]3CCCN[C@@H]3C2)c(F)cc2c(=O)c(C(=O)O)cn(C3CC3)c12 [MOXIFLOXACIN],MIC,[16],8 mg/L
